Source: patent US12643867B2, “Compositions and uses thereof” (University of Virginia Patent Foundation, priority 2017, dated 2026)

Columns and labels:
Assay in all cases: SILAC LC-MS ATP acyl phosphate probe competition, native kinases in HEK293T
Type in all cases: binding
[1] = target: T1, E2AK2 (Interferon-induced, double-stranded RNA-activated protein kinase) (Homo sapiens, UniProt P19525); conditions: site Lys2; ATP 1 mM; Ketanserin, Ritanserin 100 μM; RF001 1 mM
T1 construct: measured against >50 native kinases quantified in HEK293T soluble proteomes; endogenous in cells; host or cells: HEK293T soluble proteome
How it was run: (§1)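 HEK293T SILAC proteomes, 2 mg/ml; heavy + compound (from 50× DMSO stock), light + DMSO, 30 min, 25° C. Mix 1:1, MeOH/CHCl3 extraction, DTT/iodoacetamide, trypsin/Lys-C 3 h 37° C. Avidin enrichment of desthiobiotin-modified peptides; Orbitrap Q Exactive Plus LC-MS, top-10 DDA.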

[2] = target: T2, RAF1 (RAF proto-oncogene serine/threonine-protein kinase) (Homo sapiens, UniProt P04049); conditions: site Lys2; ATP 1 mM; Ketanserin, Ritanserin 100 μM; RF001 1 mM
T2 construct: Native kinases; endogenous in cells; host or cells: HEK293T soluble proteome
How it was run: as §1

[3] = target: T3, ULK3 (Unc-51-like kinase 3) (Homo sapiens, UniProt Q6PHR2); conditions: site Lys1; ATP 1 mM; Ketanserin, Ritanserin 100 μM; RF001 1 mM
T3 construct: Native kinases; endogenous in cells; host or cells: HEK293T soluble proteome
T3 sequence (Q6PHR2 1-472): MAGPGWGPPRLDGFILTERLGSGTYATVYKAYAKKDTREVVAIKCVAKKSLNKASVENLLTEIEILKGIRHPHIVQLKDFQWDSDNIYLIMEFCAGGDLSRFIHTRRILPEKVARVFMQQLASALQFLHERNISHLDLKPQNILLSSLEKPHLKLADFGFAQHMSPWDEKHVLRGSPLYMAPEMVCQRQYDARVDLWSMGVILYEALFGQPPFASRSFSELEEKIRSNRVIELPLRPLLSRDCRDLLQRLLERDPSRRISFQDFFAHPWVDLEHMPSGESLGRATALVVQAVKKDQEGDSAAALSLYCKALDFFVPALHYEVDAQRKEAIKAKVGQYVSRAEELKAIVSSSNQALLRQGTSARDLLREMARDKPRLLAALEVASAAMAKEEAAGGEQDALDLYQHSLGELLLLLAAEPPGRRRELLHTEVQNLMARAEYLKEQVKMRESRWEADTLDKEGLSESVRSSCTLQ
How it was run: as §1

T1 sequence (P19525 whole entry): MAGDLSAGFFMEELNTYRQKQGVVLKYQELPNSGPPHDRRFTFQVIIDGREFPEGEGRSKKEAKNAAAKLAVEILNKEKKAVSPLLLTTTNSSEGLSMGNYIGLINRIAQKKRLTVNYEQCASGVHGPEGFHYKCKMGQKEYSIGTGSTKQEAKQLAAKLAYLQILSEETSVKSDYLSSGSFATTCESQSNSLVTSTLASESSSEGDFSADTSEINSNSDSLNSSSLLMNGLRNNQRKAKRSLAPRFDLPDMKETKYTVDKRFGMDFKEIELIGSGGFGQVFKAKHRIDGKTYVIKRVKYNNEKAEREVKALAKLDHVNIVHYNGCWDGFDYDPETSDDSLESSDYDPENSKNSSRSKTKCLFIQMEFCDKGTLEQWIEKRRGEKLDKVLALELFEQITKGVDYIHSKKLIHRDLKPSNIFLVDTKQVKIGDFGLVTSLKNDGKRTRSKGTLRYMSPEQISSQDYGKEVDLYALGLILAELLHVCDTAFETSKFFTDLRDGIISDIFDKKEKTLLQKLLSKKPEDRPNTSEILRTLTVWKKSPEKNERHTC
T2 sequence (P04049 whole entry): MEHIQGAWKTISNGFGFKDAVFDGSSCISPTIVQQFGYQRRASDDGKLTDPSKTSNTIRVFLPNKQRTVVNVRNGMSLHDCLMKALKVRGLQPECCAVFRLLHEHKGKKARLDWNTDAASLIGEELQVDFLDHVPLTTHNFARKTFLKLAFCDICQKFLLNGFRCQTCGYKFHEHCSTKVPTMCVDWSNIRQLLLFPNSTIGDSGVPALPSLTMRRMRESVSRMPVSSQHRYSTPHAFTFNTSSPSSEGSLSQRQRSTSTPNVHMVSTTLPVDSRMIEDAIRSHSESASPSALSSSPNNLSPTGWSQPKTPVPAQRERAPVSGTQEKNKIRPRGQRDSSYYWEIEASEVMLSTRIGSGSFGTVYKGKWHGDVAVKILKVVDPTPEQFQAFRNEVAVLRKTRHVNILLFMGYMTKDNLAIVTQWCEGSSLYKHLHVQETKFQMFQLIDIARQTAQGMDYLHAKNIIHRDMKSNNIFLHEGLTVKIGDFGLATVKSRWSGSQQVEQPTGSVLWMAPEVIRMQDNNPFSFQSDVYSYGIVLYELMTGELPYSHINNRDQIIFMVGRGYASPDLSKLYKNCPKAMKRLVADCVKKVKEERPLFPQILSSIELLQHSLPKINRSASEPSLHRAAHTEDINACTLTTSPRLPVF

| Compound | SILAC ratio, E2AK2 probe-modified peptide [1] | SILAC ratio, RAF1 probe-modified peptide [2] | SILAC ratio, ULK3 probe-modified peptide [3] |
| --- | --- | --- | --- |
| O=C(c1ccc(F)cc1)C1CCN(CCn2c(=O)[nH]c3ccccc3c2=O)CC1 [Ketanserin] | 1.3 | 1.4 | 2.3 |
| Fc1ccc(C(=C2CCNCC2)c2ccc(F)cc2)cc1 [RF001, 4-(Bis(4-fluorophenyl)methylene) piperidine] | 1.2 | 2.1 | 1.4 |
| Cc1nc2sccn2c(=O)c1CCN1CCC(=C(c2ccc(F)cc2)c2ccc(F)cc2)CC1 [Ritanserin] | 2.8 | 3.9 | 1.8 |
